Results as given in patent US5100907A, “Hydantoin esters” (Lonza, Inc., priority 1990, dated 1992).
Where two headings read alike, the source gives them in different places.

Tests used:
Type in all cases: physicochemical
[1] = Physical properties of methylolated MHEDMH esters (I): viscosity; settings: at 25° C.
[2] = Total available formaldehyde (TF) and free formaldehyde (FF) levels of esters (I); settings: for FF/TF ratio: water
Source text: Thus, whether the formaldehyde content is chemically bonded to the hydantoin moiety or is free formaldehyde (FF) in solution, e.g., in water as formaldehyde or methylene glycol [CH2 (OH)2 ], it remains available for biocidal action. Due to this direct relation, the weight percent TF in a given preparation of the ester (I), e.g. a cosmetic formulation, can be predicted accurately, regardless of the level of dilution.

[3] = Solubilities of esters in typical solvents / appearance of samples in water; settings: 25° C.
[4] = Surface tension tests (cmc, Gibbs' Free Energy of Micellation)
Description: Surface tension tests were conducted as to the relationship between the fatty acid aliphatic chain length, i.e. number of carbon atoms, in the esters (I), and their performance as surfactants. The length of the hydrophobic chain of a molecule is considered the major contributing factor to the critical micelle concentration (cmc) value of a surfactant. This value is obtained from surface tension measurement data. The lower the cmc, the more readily the material will form micelles.
The Gibbs' Free Energy of Micellation (ΔG°cmc) and the ΔG°cmc per --CH2 -- can be determined if the cmc is known.
The ΔG°cmc is a calculated value obtained by Equation 1.
ΔG°cmc =2.303RT(log cmc-log[water]) (Eq. 1)
The ΔG°cmc per --CH2 -- value is obtained from the slope of the straight line curve formed from a plot of ΔG°cmc versus the number of carbon atoms in the lipophilic chain.
The cmc values were based on surface tension tests conducted with a tensiometer (Cenco-DuNoug Precision Model #70535, direct reading model) to determine the upward surface tension at the liquid-air surface of the test ester/water solution. The methods used to calibrate the tensiometer, calculate the "correction factor" (used to correct for the difference between the apparent and true surface tension), and collect data, were conducted as described in the manual for the instrument. Sodium lauryl sulfate (SLS) and distilled water were used as reference samples.
On completing data collection, plots of the surface tension (dynes) versus -log of the concentration (mols/liter) were prepared, using only the "corrected" surface tension value, obtained by applying the noted "correction factor" in each case. The […] was found by multiplying the "apparent" surface tension by a calculated correction factor.
The critical micelle concentration (cmc) for each sample was determined by locating the point in the curve where the surface tension first begins to level off, per a known procedure.

[5] = HLB determination (weighted average method)
Source text: Hydrophilic-Lipophilic Balance or HLB is a means of associating the hydrophilic and lipophilic characteristics between two surfactants. A "weighted average" method was used to determine the HLB of the esters (I), and by comparison of the precursor ester (Ia), in which two emulsifiers of known HLB values along with the test ester were incorporated in a mixture of mineral oil and water. Evaluation and HLB determination of each of a series of prepared emulsion samples were effected by visual inspection.
The HLB of the mixture "m" is calculated from the sum of the HLB contributions of each surfactant, "a", "b", "c", per Equation 2 which describes a system of oil, water, and three surfactants.
Given that [HLB]m, [HLB]a, and [HLB]b, are known, and the ideal amount of "a", "b", and "c" to prepare a perfect emulsion has been determined, then by rearrangement of Eq. 2, the HLB of "c" can be calculated by Equation 3.
To obtain the HLB of the test ester as surfactant "c", a series of formulations was prepared in which the known surfactant sorbitan monostearate (SMS) as "a" and the known surfactant POE 20 sorbitan monostearate (POE 20 SMS) as "b" were varied in amount (wt. %) relative to each other at a constant amount (1 wt. %) of "c", until an optimum emulsion was obtained. Different combinations of "a" and "b" were used to vary the HLB of "c", for emulsifying a 40:56 (wt. %) mixture of paraffin oil and distilled water (totaling 96 wt. %).
To prepare the emulsions, surfactants "a", "b", and "c", and the paraffin oil were combined in a 150 ml beaker and heated slowly with agitation to 70°-80° C. The value of "X" in each formulation was predetermined by rearranging Eq. 3 to solve for X, and then inserting into the equation various [HLB]c values for the test ester (i.e., 2, 3, 4, 5, 6 . . . ). The [HLB]c values chosen reflected a range that would likely contain the actual HLB of the test ester. Hot distilled water (70°-80° C.) was then slowly added with agitation. The total weight of all these reagents was 100 grams. The resulting emulsion was allowed to cool, with continued agitation, until the temperature dropped below 30° C.
A series of emulsions for each test was prepared, one at a time, and then examined as a set. Each sample within the series was evaluated and graded according to the quality of the emulsion by visual examination of droplet size.

Emulsion stability tests = settings: for Classification of Emulsion: 2% ester, 7% myristyl propionate, 91% water
Description: Emulsion stability tests were performed on the esters (I), and for comparison on the precursor esters (Ia), to determine the extent to which each stabilized a standardized solution of water and an oil, using a common procedure consisting of homogenizing a mixture containing the test ester (2%), myristyl propionate (7%), and water (91%). While two emulsifiers are normally used to prepare a cosmetic formulation, e.g. one with a high HLB and the other with a low HLB, the test method herein using only one emulsifier, i.e. the test ester, is fully indicative of the emulsifying attributes of these esters.
The tests were performed with emulsions (500 g), prepared by combining the test ester (10.0 g), myristyl propionate (35 g), and distilled water (455 g) in a container and homogenizing the contents for one minute, via a Kika-Werk Ultra-Turrax S D-45 homogenizer. The emulsions were poured into a one pound flint jar, capped, and periodically examined over a 55 day period.

[6] = Dispersion stability tests
Description: The dispersion stability tests were performed on the esters (I) to determine the extent each was able to disperse itself in an aqueous medium.
The dispersions were prepared by homogenizing a mixture of the test ester and water, after which repeated examination of the sample was effected for a period of 55 days. This test method is fully indicative of the dispersibility of these esters (I).
The dispersion tests were performed with the esters at 0.5% and 5.0% active levels in water, prepared by combining the test ester with distilled water, and homogenizing the mixture for one to three minutes, via a Kika-Werk Ultra-Turrax S D-45 homogenizer. The dispersions were poured into an eight ounce flint jar, capped, and periodically examined over a 55 day period.

[7] = 1% active concentration in water

CC(=O)OCCN1C(=O)N(CO)C(=O)C1(C)C [Acetic Methylolated Ester, 2-(3-hydroxymethyl-5,5-dimethyl-1,3-diazacyclopentane-2,4-dion-1-yl)-ethylester of acetic acid]
Viscosity [1]: 4,384 cts | Calculated TF [2, 7]: 0.123 Wt. % | Determined FF [2, 7]: 0.0199 Wt. % | Ratio FF/TF [2, 7]: 0.162 | FF (free formaldehyde) ([2]; neat ester, Table 3): 0.6 Wt. % | TF (total available formaldehyde) ([2]; neat ester, Table 3): 12.3 Wt. % | FF/TF ratio ([2]; concentration 0.1%): 0.25 | FF/TF ratio ([2]; concentration 1%): 0.20 | FF/TF ratio ([2]; concentration levels >5%): about 0.15% | Solubility in isopropyl alcohol [3]: S (>10 g/100 g Solvent) | Solubility in mineral oil ([3]; grams, legend per 100 g Solvent): 3 g | solubility ([3]; water): > 100 mg/mL | ΔG°cmc (Gibbs' Free Energy of Micellation) ([4]; calculated from cmc by Eq. 1, T=298° K.): -3.896 kcal/mol | cmc (critical micelle concentration) ([4]; ester/water solution): 7.24 × 10^-3 mol dm^-3 | Average HLB [5]: 19.0 | HLB Range [5]: 19-20 | Average HLB ([5]; listed as acetate (I)): 19 | ability to stabilize emulsions (Emulsion stability tests): generally unable to stabilize an emulsion for more than two hours | emulsion quality, decreasing order of rank (Emulsion stability tests): cocoate, laurate>oleate,isostearate>stearate>C8/10 ester>acetate | Classification of Emulsion (Emulsion stability tests; 2 Hours after preparation): 2-Phase | Classification of Emulsion (Emulsion stability tests; 7 Days after preparation): 2-Phase | Classification of Emulsion (Emulsion stability tests; 22 Days after preparation): 2-Phase | Classification of Emulsion (Emulsion stability tests; 55 Days after preparation): 2-Phase | dispersion quality, decreasing order of rank [6]: isostearate>oleate>cocoate>laurate>C8/10ester>>stearate>acetate | Classification of Dispersion ([6]; 0.5% active in water, 2 Hours): Dissolved | Classification of Dispersion ([6]; 0.5% active in water, 3 Days): Dissolved | Classification of Dispersion ([6]; 0.5% active in water, 13 Days): Dissolved | Classification of Dispersion ([6]; 0.5% active in water, 55 Days): Dissolved | Classification of Dispersion ([6]; 5.0% active in water, 2 Hours): Dissolved | Classification of Dispersion ([6]; 5.0% active in water, 3 Days): Dissolved | Classification of Dispersion ([6]; 5.0% active in water, 13 Days): Dissolved | Classification of Dispersion ([6]; 5.0% active in water, 55 Days): Dissolved
